Source: US20160310477A1, “CANCER TREATMENTS USING COMBINATIONS OF MEK TYPE 1 AND ERK INHIBITORS” (BIOMED VALLEY DISCOVERIES, INC., priority 2013, published 2016)

Experiments:
ERK = settings: Morris et al., 2013; cited from earlier work
[1] = test system: MAPK signaling in HCT116 cells; assay: Western blot of MAPK signaling markers; assay type: cell-based, human; settings: HCT116, 4 hours, micromolar concentrations
Protocol: For Western blot studies, HCT116 cells (5×10^6) were seeded into 10 cm dishes in McCoy's 5A plus 10% FBS. […] Cells were allowed to adhere overnight prior to addition of the indicated amount of test compound (BVD-523) or vehicle control. Cells were treated for either 4 or 24 hours before isolation of whole-cell protein lysates, as specified below. Cells were harvested by trypsinisation, pelleted and snap frozen. Lysates were prepared with RIPA (Radio-Immunoprecipitation Assay) buffer, clarified by centrifugation and quantitated by bicinchoninic acid assay (BCA) assay. 20-50 μg of protein was resolved by SDS-PAGE electrophoresis, blotted onto PVDF membrane and probed using the antibodies detailed in Table 5 (for the 4-hour treatment) and Table 6 (for the 24-hour treatment) below. [table]

[2] = test system: MAPK signaling in A375 cells; assay: Western blot of MAPK signaling, cell cycle and apoptosis markers; assay type: cell-based, human

Row | Compound | autophosphorylation of ERK (ERK) | phosphorylation of ERK-dependent residues (T359/S363) in RSK 1 and 2 proteins [1] | cyclin-D1 level ([2]; 24 hours of treatment) | phosphorylation of ERK-dependent residues (T359/S363) in RSK 1 and 2 proteins ([2]; A375, 4 hours, micromolar concentrations) | Bim-EL level ([2]; A375, prolonged treatment) | apoptosis / PARP cleavage ([2]; A375, prolonged treatment) | MAPK feedback phosphatase DUSP6 level ([2]; BRAF mutant cell line, 24 hours of treatment) | autophosphorylation of ERK ([2]; FIG. 1 Western blot) | concentrations required to induce changes in substrate phosphorylation and effector targets of ERK ([2]; RAF and RAS mutant cancer cells, Western blot, 4 or 24 h)
1 | O=C(Nc1ccc2[nH]nc(-c3ccncc3)c2c1)[C@@H]1CCN(CC(=O)N2CCN(c3ccc(-c4ncccn4)cc3)CC2)C1 [SCH772984] | inhibits autophosphorylation of ERK |  |  |  |  |  |  |  | 
2 | CC(C)Nc1cc(-c2c[nH]c(C(=O)N[C@H](CO)c3cccc(Cl)c3)c2)c(Cl)cn1 [BVD-523] |  | reduced | greatly reduced | reduced | increased | increased apoptosis was not observed | greatly reduced | allows for the autophosphorylation of ERK | low micromolar range
